Measured values published in US6914045B2, “Glycopeptide antibiotics” (Wyeth Holdings Corporation, priority 2001, dated 2005).
Converted amounts (≈) assume the structure as drawn.

Legend:
Test in all cases: in vitro antibacterial evaluation, MIC by broth dilution
Type in all cases: cell-based
[1] = test system: Enterococcus sp.; conditions: broth dilution, 18 hours at 35° C.
Method in brief: (§1)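 Read-out: the lowest concentration at which the test strain fails to grow. Serial dilutions (64-0.06 μg/mL) in Muller-Hinton II […], 5×10^5 CFU/mL inoculum, NCCLS M7-A2 procedure.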

[2] = test system: Escherichia coli; conditions: 18 hours at 35° C.
Method in brief: as §1

[3] = test system: Staphylococcus sp.; conditions: broth dilution, 18 hours at 35° C.
Method in brief: as §1

[4] = test system: Streptococcus sp.; conditions: broth dilution, 18 hours at 35° C.
Method in brief: as §1

SMILES: CC(c1ccccc1)C1NC(=O)CNC(=O)C(CO)NC(=O)C(C(O)C2CNC(=N)N2C2OC(CO)C(O)C(O)C2O)NC(=O)C(C(O)C2CNC(=N)N2)NC(=O)C(Cc2ccc(OC3OC(CO)C(OC4OC(CO)C(O)C5OC(c6ccccc6)OC45)C(O)C3O)cc2)NC1=O (single isomer, unassigned) [Example 104a, Cyclo[glycyl-β-methylphenylalanyl-O-[4-O-(2,3-O-benzylidenehexopyranosyl)hexopyranosyl]-tyrosyl-3-(2-iminoimidazolidin-4-yl)seryl-3-(3-hexopyranosyl-2-iminoimidazolidin-4-yl)-serylseryl]]
- MIC Enterococcus avium (GC 4558) ([1]; Enterococcus avium (GC 4558)): >64 µg/mL
- MIC Enterococcus faecalis (ATCC 29212) ([1]; Enterococcus faecalis (ATCC 29212)): >64 µg/mL
- MIC Enterococcus faecalis (GC 2242) ([1]; Enterococcus faecalis (GC 2242)): >64 µg/mL
- MIC Enterococcus faecalis (GC 2691) ([1]; Enterococcus faecalis (GC 2691)): >0.5 µg/mL
- MIC Enterococcus faecalis (GC 3059) ([1]; Enterococcus faecalis (GC 3059)): >0.5 µg/mL
- MIC Enterococcus faecalis (GC 4552) ([1]; Enterococcus faecalis (GC 4552)): >0.5 µg/mL
- MIC Enterococcus faecalis (GC 4553) ([1]; Enterococcus faecalis (GC 4553)): >0.5 µg/mL
- MIC Enterococcus faecalis (GC 4554) ([1]; Enterococcus faecalis (GC 4554)): >0.5 µg/mL
- MIC Enterococcus faecalis (GC 6189) ([1]; Enterococcus faecalis (GC 6189)): >64 µg/mL
- MIC Enterococcus faecium (GC 2243) ([1]; Enterococcus faecium (GC 2243)): >64 µg/mL
- MIC Enterococcus faecium (GC 4556) ([1]; Enterococcus faecium (GC 4556)): >64 µg/mL
- MIC Enterococcus faecium (GC 4557) ([1]; Enterococcus faecium (GC 4557)): 0.5 µg/mL (≈ 0.361 µM)
- MIC Enterococcus faecalis (ATCC 29212) ([1]; strain ATCC 29212): >64 µg/mL
- MIC Enterococcus faecalis (GC 2242) ([1]; strain GC 2242): >64 µg/mL
- MIC Enterococcus faecium (GC 2243) ([1]; strain GC 2243): >64 µg/mL
- MIC Enterococcus faecalis (GC 2691) ([1]; strain GC 2691): >0.5 µg/mL
- MIC Enterococcus faecalis (GC 3059) ([1]; strain GC 3059): >0.5 µg/mL
- MIC Enterococcus faecalis (GC 4552) ([1]; strain GC 4552): >0.5 µg/mL
- MIC Enterococcus faecalis (GC 4553) ([1]; strain GC 4553): >0.5 µg/mL
- MIC Enterococcus faecalis (GC 4554) ([1]; strain GC 4554): >0.5 µg/mL
- MIC Enterococcus faecium (GC 4556) ([1]; strain GC 4556): >64 µg/mL
- MIC Enterococcus faecium (GC 4557) ([1]; strain GC 4557): 0.5 µg/mL (≈ 0.361 µM)
- MIC Enterococcus avium (GC 4558) ([1]; strain GC 4558): >64 µg/mL
- MIC Enterococcus faecalis (GC 6189) ([1]; strain GC 6189): >64 µg/mL
- MIC Escherichia coli (ATCC 25922) ([2]; strain ATCC 25922): >64 µg/mL
- MIC Escherichia coli (GC 4559) ([2]; strain GC 4559): >64 µg/mL
- MIC Escherichia coli (GC 4560) ([2]; strain GC 4560): 0.5 to 16 µg/mL
- MIC Coagulase Negative Staphylococcus (GC 4547) [3]: 32 µg/mL (≈ 23.1 µM)
- MIC Coagulase Negative Staphylococcus (GC 4548) [3]: 16 to 32 µg/mL
- MIC Coagulase Negative Staphylococcus (GC 4549) [3]: 16 to 32 µg/mL
- MIC Coagulase Negative Staphylococcus (GC 4551) [3]: 32 µg/mL (≈ 23.1 µM)
- MIC Coagulase Negative Staphylococcus (GC 6257) [3]: 16 µg/mL (≈ 11.6 µM)
- MIC Staphylococcus aureus (ATCC 29213) [3]: 0.5 to 64 µg/mL
- MIC Staphylococcus aureus (GC 1131) [3]: 0.5 to 64 µg/mL
- MIC Staphylococcus aureus (GC 3051) [3]: 0.5 µg/mL (≈ 0.361 µM)
- MIC Staphylococcus aureus (GC 3053) [3]: 0.5 µg/mL (≈ 0.361 µM)
- MIC Staphylococcus aureus (GC 4541) [3]: 0.5 to 32 µg/mL
- MIC Staphylococcus aureus (GC 4542) [3]: 0.5 µg/mL (≈ 0.361 µM)
- MIC Staphylococcus aureus (GC 4544) [3]: 0.5 µg/mL (≈ 0.361 µM)
- MIC Staphylococcus aureus (GC 4545) [3]: 0.5 µg/mL (≈ 0.361 µM)
- MIC Staphylococcus aureus-SMITH (GC 4543) [3]: 0.5 to 64 µg/mL
- MIC Staphylococcus haemolyticus (GC 4546) [3]: 32 µg/mL (≈ 23.1 µM)
- MIC Staphylococcus haemolyticus (GC 4546) ([3]; strain GC 4546): 32 µg/mL (≈ 23.1 µM)
- MIC Coagulase Negative Staphylococcus (GC 4547) ([3]; strain GC 4547): 32 µg/mL (≈ 23.1 µM)
- MIC Coagulase Negative Staphylococcus (GC 4548) ([3]; strain GC 4548): 16 to 32 µg/mL
- MIC Coagulase Negative Staphylococcus (GC 4549) ([3]; strain GC 4549): 16 to 32 µg/mL
- MIC Coagulase Negative Staphylococcus (GC 4551) ([3]; strain GC 4551): 32 µg/mL (≈ 23.1 µM)
- MIC Coagulase Negative Staphylococcus (GC 6257) ([3]; strain GC 6257): 16 µg/mL (≈ 11.6 µM)
- MIC Staphylococcus aureus-SMITH (GC 4543) ([3]; strain SMITH GC 4543): 0.5 to 64 µg/mL
- MIC Staphylococcus aureus (ATCC 29213) ([3]; strain ATCC 29213): 0.5 to 64 µg/mL
- MIC Staphylococcus aureus (GC 1131) ([3]; strain GC 1131): 0.5 to 64 µg/mL
- MIC Staphylococcus aureus (GC 3051) ([3]; strain GC 3051): 0.5 µg/mL (≈ 0.361 µM)
- MIC Staphylococcus aureus (GC 3053) ([3]; strain GC 3053): 0.5 µg/mL (≈ 0.361 µM)
- MIC Staphylococcus aureus (GC 4541) ([3]; strain GC 4541): 0.5 to 32 µg/mL
- MIC Staphylococcus aureus (GC 4542) ([3]; strain GC 4542): 0.5 µg/mL (≈ 0.361 µM)
- MIC Staphylococcus aureus (GC 4544) ([3]; strain GC 4544): 0.5 µg/mL (≈ 0.361 µM)
- MIC Staphylococcus aureus (GC 4545) ([3]; strain GC 4545): 0.5 µg/mL (≈ 0.361 µM)
- MIC Streptococcus agalactiae (GC 4564) ([4]; Streptococcus agalactiae (GC 4564)): 0.5 µg/mL (≈ 0.361 µM)
- MIC Streptococcus pneumoniae (ATCC 6301) ([4]; Streptococcus pneumoniae (ATCC 6301)): 0.12 to 16 µg/mL
- MIC Streptococcus pneumoniae (GC 1894) ([4]; Streptococcus pneumoniae (GC 1894)): 0.12 to 8 µg/mL
- MIC Streptococcus pneumoniae (GC 4565) ([4]; Streptococcus pneumoniae (GC 4565)): 0.12 µg/mL (≈ 0.0867 µM)
- MIC Streptococcus pyogenes (GC 4563) ([4]; Streptococcus pyogenes (GC 4563)): 0.12 µg/mL (≈ 0.0867 µM)
- MIC Streptococcus pneumoniae (ATCC 6301) ([4]; strain ATCC 6301): 0.12 to 16 µg/mL
- MIC Streptococcus pneumoniae (GC 1894) ([4]; strain GC 1894): 0.12 to 8 µg/mL
- MIC Streptococcus pyogenes (GC 4563) ([4]; strain GC 4563): 0.12 µg/mL (≈ 0.0867 µM)
- MIC Streptococcus agalactiae (GC 4564) ([4]; strain GC 4564): 0.5 µg/mL (≈ 0.361 µM)
- MIC Streptococcus pneumoniae (GC 4565) ([4]; strain GC 4565): 0.12 µg/mL (≈ 0.0867 µM)
